Reference: article PMC4965013, “Open Source Drug Discovery with the Malaria Box Compound Collection for Neglected Diseases and Beyond” (PLoS Pathogens, 2016)

What was measured:
[1] = system: P. falciparum 3D7 trophozoites; assay: Metabolomic fingerprint profiling LC-MS; type: cell-based, Plasmodium falciparum; design: UDP-D-glucose / ADP-D-glucose: unit not given here; details: for Acetyllysine / N-acetyl-L-ornithine / N-carbamoyl-L-aspartate / NADPH / dAMP / dCMP / dTDP / dTMP / dTTP / dihydroorotate / orotate / DLH / DLS/SDL/SID / PD / PEE / PVNF / 3-phosphoglycerate / ADP-D-glucose / ATP / CDP / D-sedoheptulose-1/7-phosphate / FAD / GMP / NAD+ / NADP+ / Octoluse Bisphosphate / Pyroglutamic acid / UDP-D-glucose / UDP-D-glucuronate / UDP-N-acetyl-glucosamine / UDP / UMP / UTP / a-ketoglutarate / citrate/isocitrate / cytidine / dATP / dGMP/AMP / fumarate / glucose-1/6-phosphate / glycerate / guanine / guanosine / hypoxanthine / indole / inosine / nicotinate / ornithine / phosphoenolpyruvate / pyruvate / ribose-phosphate / sarcosine/alanine / sn-glycerol-3-phosphate / succinate/methylmalonic acid / uridine / xanthosine: S2 Table Metabolomics; for Acetyllysine: metabolite Acetyllysine; for N-acetyl-L-ornithine: metabolite N-acetyl-L-ornithine; for N-carbamoyl-L-aspartate: metabolite N-carbamoyl-L-aspartate; for NADPH: metabolite NADPH; for dAMP: metabolite dAMP; for dCMP: metabolite dCMP; for dTDP: metabolite dTDP; for dTMP: metabolite dTMP; for dTTP: metabolite dTTP; for dihydroorotate: metabolite dihydroorotate; for orotate: metabolite orotate; for DLH: peptide DLH; for DLS/SDL/SID: peptide DLS/SDL/SID; for PD: peptide PD; for PEE: peptide PEE; for PVNF: peptide PVNF; for 3-phosphoglycerate: metabolite 3-phosphoglycerate; for ADP-D-glucose: metabolite ADP-D-glucose; for ATP: metabolite ATP; for CDP: metabolite CDP; for CDP / D-sedoheptulose-1/7-phosphate / GMP / Octoluse Bisphosphate / UDP / UMP / UTP / citrate/isocitrate / dGMP/AMP / fumarate / glucose-1/6-phosphate / glycerate / guanine / guanosine / inosine / pyruvate / sarcosine/alanine / succinate/methylmalonic acid / uridine / xanthosine: change in metabolite level after compound treatment; for D-sedoheptulose-1/7-phosphate: metabolite D-sedoheptulose-1/7-phosphate; for FAD: metabolite FAD; for GMP: metabolite GMP; for NAD+: metabolite NAD+; for NADP+: metabolite NADP+; for Octoluse Bisphosphate: metabolite Octoluse Bisphosphate; for Pyroglutamic acid: metabolite Pyroglutamic acid; for UDP-D-glucose: metabolite UDP-D-glucose; for UDP-D-glucuronate: metabolite UDP-D-glucuronate; for UDP-N-acetyl-glucosamine: metabolite UDP-N-acetyl-glucosamine; for UDP: metabolite UDP; for UMP: metabolite UMP; for UTP: metabolite UTP; for a-ketoglutarate: metabolite a-ketoglutarate; for citrate/isocitrate: metabolite citrate/isocitrate; for cytidine: metabolite cytidine; for dATP: metabolite dATP; for dGMP/AMP: metabolite dGMP/AMP; for fumarate: metabolite fumarate; for glucose-1/6-phosphate: metabolite glucose-1/6-phosphate; for glycerate: metabolite glycerate; for guanine: metabolite guanine; for guanosine: metabolite guanosine; for hypoxanthine: metabolite hypoxanthine; for indole: metabolite indole; for inosine: metabolite inosine; for 2_3-Diphosphoglyceric acid / 4-phosphopantothenate / 6-phospho-D-gluconate / FMN / IMP / Pyrophosphate / Sedoheptoluse bisphosphate / cyclic-AMP / glutathione disulfide / lactate / myo-inositol: metabolite level change after treatment; for nicotinate: metabolite nicotinate; for ornithine: metabolite ornithine; for phosphoenolpyruvate: metabolite phosphoenolpyruvate; for pyruvate: metabolite pyruvate; for ribose-phosphate: metabolite ribose-phosphate; for sarcosine/alanine: metabolite sarcosine/alanine; for sn-glycerol-3-phosphate: metabolite sn-glycerol-3-phosphate; for succinate/methylmalonic acid: metabolite succinate/methylmalonic acid; for uridine: metabolite uridine; for xanthosine: metabolite xanthosine
P. falciparum = assay: EC50 listed in S2 Table Metabolomics (used to set the concentration tested); type: cell-based; details: Plasmodium falciparum; EC50 used for Factor_XEC50 in metabolomics; read-out: EC50_nM

Compound: CCOC(=O)C1=C(c2ccccc2)N=c2sc(=Cc3cc(C)n(-c4ccc(F)cc4)c3C)c(=O)n2C1c1cccc(OC)c1OC (stereo not shown) [MMV666601]
- Acetyllysine [1]: -0.456
- N-acetyl-L-ornithine [1]: -0.1781
- N-carbamoyl-L-aspartate [1]: 0.03088
- NADPH [1]: 0.275
- dAMP [1]: -0.2186
- dCMP [1]: 0.01598
- dTDP [1]: -0.2912
- dTMP [1]: -0.2825
- dTTP [1]: -0.02615
- dihydroorotate [1]: 0.05127
- orotate [1]: -0.2921
- DLH [1]: -0.04885
- DLS/SDL/SID [1]: -0.07047
- PD [1]: -0.02012
- PEE [1]: -0.1327
- PVNF [1]: -0.1227
- 3-phosphoglycerate [1]: 0.04151
- ADP-D-glucose [1]: -0.1367
- ATP [1]: 0.1113
- CDP [1]: -0.2732
- D-sedoheptulose-1/7-phosphate [1]: -0.3701
- FAD [1]: 0.009316
- GMP [1]: 0.1751
- NAD+ [1]: 0.04978
- NADP+ [1]: -0.07076
- Octoluse Bisphosphate [1]: -0.0546
- Pyroglutamic acid [1]: 0.2145
- UDP-D-glucose [1]: -0.01836
- UDP-D-glucuronate [1]: -0.09865
- UDP-N-acetyl-glucosamine [1]: -0.01529
- UDP [1]: -0.3315
- UMP [1]: 0.1049
- UTP [1]: 0.1938
- a-ketoglutarate [1]: 0.0362
- citrate/isocitrate [1]: 0.4989
- cytidine [1]: 0.1663
- dATP [1]: 0.2724
- dGMP/AMP [1]: -0.3927
- fumarate [1]: -0.02339
- glucose-1/6-phosphate [1]: -0.02704
- glycerate [1]: 0.006669
- guanine [1]: -0.1817
- guanosine [1]: -0.06753
- hypoxanthine [1]: 0.09643
- indole [1]: 0.007804
- inosine [1]: 0
- 2_3-Diphosphoglyceric acid [1]: -0.2012
- 4-phosphopantothenate [1]: -0.1061
- 6-phospho-D-gluconate [1]: 0.004224
- FMN [1]: -0.01347
- IMP [1]: -0.1927
- Pyrophosphate [1]: -0.04369
- Sedoheptoluse bisphosphate [1]: -0.08738
- cyclic-AMP [1]: 0.1818
- glutathione disulfide [1]: -0.01346
- lactate [1]: -0.02544
- myo-inositol [1]: -0.1142
- nicotinate [1]: 0.07511
- ornithine [1]: -0.266
- phosphoenolpyruvate [1]: -0.02402
- pyruvate [1]: -0.028
- ribose-phosphate [1]: 0.1121
- sarcosine/alanine [1]: -0.3168
- sn-glycerol-3-phosphate [1]: -0.06233
- succinate/methylmalonic acid [1]: 0.1961
- uridine [1]: -0.1775
- xanthosine [1]: 0.2404
- EC50 (P. falciparum): 0.154 µM

Compound: O=[N+]([O-])c1ccc(C=NNc2nc3ccccc3[nH]2)cc1 [MMV666607]
- Acetyllysine [1]: -1.035
- N-acetyl-L-ornithine [1]: -1.151
- N-carbamoyl-L-aspartate [1]: 0.2298
- NADPH [1]: 4.216
- dAMP [1]: 0.3403
- dCMP [1]: 0.1583
- dTDP [1]: 0.005163
- dTMP [1]: -0.3628
- dTTP [1]: 0.4469
- dihydroorotate [1]: 0.1326
- orotate [1]: 0.05442
- DLH [1]: -0.8554
- DLS/SDL/SID [1]: -0.615
- PD [1]: -0.4537
- PEE [1]: -0.9074
- PVNF [1]: -1.15
- 3-phosphoglycerate [1]: 0.2233
- ADP-D-glucose [1]: 0.2125
- ATP [1]: 0.06188
- CDP [1]: -0.1249
- D-sedoheptulose-1/7-phosphate [1]: -0.1388
- FAD [1]: -0.1276
- GMP [1]: -0.06014
- NAD+ [1]: -0.1512
- NADP+ [1]: 0.1119
- Octoluse Bisphosphate [1]: -0.09651
- Pyroglutamic acid [1]: -0.1918
- UDP-D-glucose [1]: -0.06053
- UDP-D-glucuronate [1]: -0.006477
- UDP-N-acetyl-glucosamine [1]: -0.08493
- UDP [1]: -0.2957
- UMP [1]: -0.07591
- UTP [1]: 0.3053
- a-ketoglutarate [1]: -0.2127
- citrate/isocitrate [1]: -0.1765
- cytidine [1]: -0.4158
- dATP [1]: 0.1896
- dGMP/AMP [1]: 0.09335
- fumarate [1]: 0.008021
- glucose-1/6-phosphate [1]: -0.3879
- glycerate [1]: -0.4956
- guanine [1]: -0.1214
- guanosine [1]: 0.1402
- hypoxanthine [1]: -0.3554
- indole [1]: -0.1954
- inosine [1]: -0.3969
- 2_3-Diphosphoglyceric acid [1]: 0.1914
- 4-phosphopantothenate [1]: 0.07423
- 6-phospho-D-gluconate [1]: 0.02335
- FMN [1]: -0.06375
- IMP [1]: 0.01329
- Pyrophosphate [1]: 0.2379
- Sedoheptoluse bisphosphate [1]: 0.02366
- cyclic-AMP [1]: 0.0305
- glutathione disulfide [1]: 0.01063
- lactate [1]: -0.3072
- myo-inositol [1]: -0.4133
- nicotinate [1]: 0.09712
- ornithine [1]: -0.3198
- phosphoenolpyruvate [1]: 0.2853
- pyruvate [1]: -0.3236
- ribose-phosphate [1]: 0.1666
- sarcosine/alanine [1]: -0.06565
- sn-glycerol-3-phosphate [1]: -0.0116
- succinate/methylmalonic acid [1]: 0.01013
- uridine [1]: -0.4646
- xanthosine [1]: 0.06506
- EC50 (P. falciparum): 0.142 µM
